Source: PubChem BioAssay AID2060882 (Molecular Pharmacology Branch, DTP, NCI, 2025)
Values belong to the compound of their own block, whether it stands above or below them.

Test system: 898857-211-R-J1-PDC complex spheroids, growth % test/control
Assay: Anticancer human tumor 898857-211-R-J1-PDC patient-derived melanoma cell line growth inhibition [RAS]
Details: for IC50: curve of first compound; for viability, T/C: stronger effect = lower value
In short: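 Agents were tested in combination matrices in half-log decrements from a top concentration at or near clinical Cmax (10 microM if undetermined). Targets were multi-cell spheroids of tumour lines plus HUVEC and MSC stromal cells.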

[1] = second compound 0.00316 µM, first compound 0.00316 µM
[2] = second compound 0.00316 µM, first compound 0.01 µM
[3] = second compound 0.00316 µM, first compound 0.0316 µM
[4] = second compound 0.00316 µM, first compound 0.1 µM
[5] = second compound 0.00316 µM, first compound 0.316 µM
[6] = second compound 0.00316 µM, first compound 1 µM
[7] = second compound 0.01 µM, first compound 0.00316 µM
[8] = second compound 0.01 µM, first compound 0.01 µM
[9] = second compound 0.01 µM, first compound 0.0316 µM
[10] = second compound 0.01 µM, first compound 0.1 µM
[11] = second compound 0.01 µM, first compound 0.316 µM
[12] = second compound 0.01 µM, first compound 1 µM
[13] = second compound 0.0316 µM, first compound 0.00316 µM
[14] = second compound 0.0316 µM, first compound 0.01 µM
[15] = second compound 0.0316 µM, first compound 0.0316 µM
[16] = second compound 0.0316 µM, first compound 0.1 µM
[17] = second compound 0.0316 µM, first compound 0.316 µM
[18] = second compound 0.0316 µM, first compound 1 µM
[19] = second compound 0.1 µM, first compound 0.00316 µM
[20] = second compound 0.1 µM, first compound 0.01 µM
[21] = second compound 0.1 µM, first compound 0.0316 µM
[22] = second compound 0.1 µM, first compound 0.1 µM
[23] = second compound 0.1 µM, first compound 0.316 µM
[24] = second compound 0.1 µM, first compound 1 µM
[25] = second compound 0.316 µM, first compound 0.00316 µM
[26] = second compound 0.316 µM, first compound 0.01 µM
[27] = second compound 0.316 µM, first compound 0.0316 µM
[28] = second compound 0.316 µM, first compound 0.1 µM
[29] = second compound 0.316 µM, first compound 0.316 µM
[30] = second compound 0.316 µM, first compound 1 µM
[31] = second compound 1 µM, first compound 0.00316 µM
[32] = second compound 1 µM, first compound 0.01 µM
[33] = second compound 1 µM, first compound 0.0316 µM
[34] = second compound 1 µM, first compound 0.1 µM
[35] = second compound 1 µM, first compound 0.316 µM
[36] = second compound 1 µM, first compound 1 µM
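Note: spheroids exposed to compound for seven days before readout.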
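Throughout, for viability, T/C: 100% = DMSO vehicle control wells.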

IC50 (second compound 0.0316 µM): 4.05 nM | IC50 (second compound 0.1 µM): 5.69 nM | IC50 (second compound 0.316 µM): 5.3 nM | IC50 (second compound 1 µM): 5.82 nM | IC50 (second compound 3.16 µM): 5.41 nM | IC50 (second compound 10 µM): 2.06 nM
SMILES: CC1(C)CCC(Nc2ncc(C(F)(F)F)c(-c3c[nH]c4c(P(C)(C)=O)c(C#N)ccc34)n2)CN1 (stereo not drawn) + C#Cc1c(F)ccc2cc(O)cc(-c3ncc4c(N5CC6CCC(C5)N6)nc(OCC56CCCN5CC(F)C6)nc4c3F)c12
viability, T/C (second compound 0.0316 µM, first compound 0.000949 µM): 99.2% | viability, T/C (second compound 0.0316 µM, first compound 0.003 µM): 56.7% | viability, T/C (second compound 0.0316 µM, first compound 0.00949 µM): 30.9% | viability, T/C (second compound 0.0316 µM, first compound 0.03 µM): 22% | viability, T/C (second compound 0.0316 µM, first compound 0.0949 µM): 19.6% | viability, T/C (second compound 0.0316 µM, first compound 0.3 µM): 17.6% | viability, T/C (second compound 0.1 µM, first compound 0.000949 µM): 92.2% | viability, T/C (second compound 0.1 µM, first compound 0.003 µM): 66.7% | viability, T/C (second compound 0.1 µM, first compound 0.00949 µM): 35.4% | viability, T/C (second compound 0.1 µM, first compound 0.03 µM): 26.7% | viability, T/C (second compound 0.1 µM, first compound 0.0949 µM): 18.4% | viability, T/C (second compound 0.1 µM, first compound 0.3 µM): 17.5% | viability, T/C (second compound 0.316 µM, first compound 0.000949 µM): 91.3% | viability, T/C (second compound 0.316 µM, first compound 0.003 µM): 63.7% | viability, T/C (second compound 0.316 µM, first compound 0.00949 µM): 34.5% | viability, T/C (second compound 0.316 µM, first compound 0.03 µM): 28.1% | viability, T/C (second compound 0.316 µM, first compound 0.0949 µM): 20.4% | viability, T/C (second compound 0.316 µM, first compound 0.3 µM): 18.2% | viability, T/C (second compound 1 µM, first compound 0.000949 µM): 86.7% | viability, T/C (second compound 1 µM, first compound 0.003 µM): 66.1% | viability, T/C (second compound 1 µM, first compound 0.00949 µM): 37.7% | viability, T/C (second compound 1 µM, first compound 0.03 µM): 24.4% | viability, T/C (second compound 1 µM, first compound 0.0949 µM): 20.6% | viability, T/C (second compound 1 µM, first compound 0.3 µM): 17.1% | viability, T/C (second compound 3.16 µM, first compound 0.000949 µM): 87% | viability, T/C (second compound 3.16 µM, first compound 0.003 µM): 64.4% | viability, T/C (second compound 3.16 µM, first compound 0.00949 µM): 34.7% | viability, T/C (second compound 3.16 µM, first compound 0.03 µM): 28.9% | viability, T/C (second compound 3.16 µM, first compound 0.0949 µM): 19.7% | viability, T/C (second compound 3.16 µM, first compound 0.3 µM): 19.1% | viability, T/C (second compound 10 µM, first compound 0.000949 µM): 68.7% | viability, T/C (second compound 10 µM, first compound 0.003 µM): 40.4% | viability, T/C (second compound 10 µM, first compound 0.00949 µM): 25.2% | viability, T/C (second compound 10 µM, first compound 0.03 µM): 24.3% | viability, T/C (second compound 10 µM, first compound 0.0949 µM): 15.3% | viability, T/C (second compound 10 µM, first compound 0.3 µM): 13.2%

IC50 (second compound 0.00316 µM): 940 nM | IC50 (second compound 0.01 µM): > 1000 nM | IC50 (second compound 0.0316 µM): > 1000 nM | IC50 (second compound 0.1 µM): 962 nM | IC50 (second compound 0.316 µM): > 1000 nM | IC50 (second compound 1 µM): 870 nM
SMILES: C=CC(=O)Nc1cc(Nc2nccc(-c3cn(C)c4ccccc34)n2)c(OC)cc1N(C)CCN(C)C + C=CC(=O)N1CCN(c2nc(OCC3CCCN3C)nc3c(F)c(-c4nc(N)cc(C)c4C(F)(F)F)c(Cl)cc23)C(C)C1
viability, T/C [1]: 98.9% | viability, T/C [2]: 98.9% | viability, T/C [3]: 116% | viability, T/C [4]: 101% | viability, T/C [5]: 92.6% | viability, T/C [6]: 47.5% | viability, T/C [7]: 102% | viability, T/C [8]: 105% | viability, T/C [9]: 93% | viability, T/C [10]: 100% | viability, T/C [11]: 96.5% | viability, T/C [12]: 54.4% | viability, T/C [13]: 104% | viability, T/C [14]: 103% | viability, T/C [15]: 104% | viability, T/C [16]: 107% | viability, T/C [17]: 93.6% | viability, T/C [18]: 58.4% | viability, T/C [19]: 105% | viability, T/C [20]: 105% | viability, T/C [21]: 117% | viability, T/C [22]: 106% | viability, T/C [23]: 98% | viability, T/C [24]: 48.2% | viability, T/C [25]: 114% | viability, T/C [26]: 112% | viability, T/C [27]: 116% | viability, T/C [28]: 108% | viability, T/C [29]: 93.8% | viability, T/C [30]: 53.7% | viability, T/C [31]: 118% | viability, T/C [32]: 120% | viability, T/C [33]: 124% | viability, T/C [34]: 114% | viability, T/C [35]: 97.7% | viability, T/C [36]: 43.4%

IC50 (second compound 0.00316 µM): > 10000 nM | IC50 (second compound 0.01 µM): > 10000 nM | IC50 (second compound 0.0316 µM): > 10000 nM | IC50 (second compound 0.1 µM): > 10000 nM | IC50 (second compound 0.316 µM): > 10000 nM | IC50 (second compound 1 µM): > 10000 nM
SMILES: CC(Nc1ccc2c(c1)OCCn1cc(N3C(=O)OCC3C(F)F)nc1-2)C(N)=O (stereo not drawn) + C=CC(=O)N1CCN(c2nc(OCC3CCCN3C)nc3c(F)c(-c4nc(N)cc(C)c4C(F)(F)F)c(Cl)cc23)C(C)C1
viability, T/C [3]: 106% | viability, T/C [4]: 91.2% | viability, T/C [5]: 98.7% | viability, T/C [6]: 93.9% | viability, T/C (second compound 0.00316 µM, first compound 3.16 µM): 94.8% | viability, T/C (second compound 0.00316 µM, first compound 10 µM): 72.8% | viability, T/C [9]: 94.7% | viability, T/C [10]: 103% | viability, T/C [11]: 93.9% | viability, T/C [12]: 87.6% | viability, T/C (second compound 0.01 µM, first compound 3.16 µM): 95.6% | viability, T/C (second compound 0.01 µM, first compound 10 µM): 71.4% | viability, T/C [15]: 108% | viability, T/C [16]: 103% | viability, T/C [17]: 98.7% | viability, T/C [18]: 91.9% | viability, T/C (second compound 0.0316 µM, first compound 3.16 µM): 81.8% | viability, T/C (second compound 0.0316 µM, first compound 10 µM): 75.7% | viability, T/C [21]: 99.8% | viability, T/C [22]: 105% | viability, T/C [23]: 107% | viability, T/C [24]: 99.1% | viability, T/C (second compound 0.1 µM, first compound 3.16 µM): 87.9% | viability, T/C (second compound 0.1 µM, first compound 10 µM): 74.5% | viability, T/C [27]: 118% | viability, T/C [28]: 120% | viability, T/C [29]: 108% | viability, T/C [30]: 97% | viability, T/C (second compound 0.316 µM, first compound 3.16 µM): 94.4% | viability, T/C (second compound 0.316 µM, first compound 10 µM): 70.1% | viability, T/C [33]: 113% | viability, T/C [34]: 124% | viability, T/C [35]: 102% | viability, T/C [36]: 111% | viability, T/C (second compound 1 µM, first compound 3.16 µM): 90.1% | viability, T/C (second compound 1 µM, first compound 10 µM): 71.4%

IC50 (second compound 0.00316 µM): 5.18 nM | IC50 (second compound 0.01 µM): 3.43 nM | IC50 (second compound 0.0316 µM): 4.61 nM | IC50 (second compound 0.1 µM): 5.75 nM | IC50 (second compound 0.316 µM): 6.85 nM | IC50 (second compound 1 µM): 8.71 nM
SMILES: O=C(c1ccc(F)c(F)c1Nc1ccc(I)cc1F)N1CC(O)([C@@H]2CCCCN2)C1 + C=CC(=O)N1CCN(c2nc(OCC3CCCN3C)nc3c(F)c(-c4nc(N)cc(C)c4C(F)(F)F)c(Cl)cc23)C(C)C1
viability, T/C [1]: 60.9% | viability, T/C [2]: 33.6% | viability, T/C [3]: 28.4% | viability, T/C [4]: 21.8% | viability, T/C [5]: 18.9% | viability, T/C [6]: 16.4% | viability, T/C [7]: 50.9% | viability, T/C [8]: 38.3% | viability, T/C [9]: 26.4% | viability, T/C [10]: 19.6% | viability, T/C [11]: 15.8% | viability, T/C [12]: 16% | viability, T/C [13]: 56.3% | viability, T/C [14]: 38% | viability, T/C [15]: 23.6% | viability, T/C [16]: 23.6% | viability, T/C [17]: 19.1% | viability, T/C [18]: 15.3% | viability, T/C [19]: 60.6% | viability, T/C [20]: 39.7% | viability, T/C [21]: 28% | viability, T/C [22]: 21.5% | viability, T/C [23]: 17.6% | viability, T/C [24]: 14% | viability, T/C [25]: 58.1% | viability, T/C [26]: 46.9% | viability, T/C [27]: 33.4% | viability, T/C [28]: 25.4% | viability, T/C [29]: 19.1% | viability, T/C [30]: 14.4% | viability, T/C [31]: 73.2% | viability, T/C [32]: 40.8% | viability, T/C [33]: 38.6% | viability, T/C [34]: 23.5% | viability, T/C [35]: 18.1% | viability, T/C [36]: 14.5%
